Results published in the supplement of paper PMC10307832.

Legend:
Assay in all cases: relative viability (nuclei count vs DMSO), 5 days (fraction); higher = more cells survive
[1] = compound: CNC(=O)c1cc(Oc2ccc(NC(=O)Nc3ccc(Cl)c(C(F)(F)F)c3)cc2)ccn1 [Sorafenib] + Cc1nc(Nc2ncc(C(=O)Nc3c(C)cccc3Cl)s2)cc(N2CCN(CCO)CC2)n1 [Dasatinib] (partner 0.075 µM)
Procedure, shortened: (§1)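 Lung cancer cell lines were seeded in 1536-well plates and dosed by pin tool the next day, with either a single drug or a fixed anchor-drug dose combined with five library-drug doses (not always all listed) spaced in √10 steps. Five days later, one step fixed the cells and stained their nuclei (final 0.05% Triton X-100, 1% formaldehyde, 1 ug/ml Hoechst), and nuclei were counted on 4× images. Relative viability is the nuclei count in treated wells divided by the count in vehicle wells, and each value is the median of duplicate plates.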

[2] = compound: CNC(=O)c1cc(Oc2ccc(NC(=O)Nc3ccc(Cl)c(C(F)(F)F)c3)cc2)ccn1 [Sorafenib] + O=C(c1cc(Cc2n[nH]c(=O)c3ccccc23)ccc1F)N1CCN(C(=O)C2CC2)CC1 [Olaparib] (partner 8 µM)
Procedure, shortened: as §1

[3] = compound: CNC(=O)c1cc(Oc2ccc(NC(=O)Nc3ccc(Cl)c(C(F)(F)F)c3)cc2)ccn1 [Sorafenib] + NC(=O)Nc1cc(-c2cccc(F)c2)sc1C(=O)N[C@H]1CCCNC1 [AZD7762] (partner 0.2 µM)
Procedure, shortened: as §1

[4] = compound: CNC(=O)c1cc(Oc2ccc(NC(=O)Nc3ccc(Cl)c(C(F)(F)F)c3)cc2)ccn1 [Sorafenib] + Cc1nc(NC(=O)N2CCC[C@H]2C(N)=O)sc1-c1ccnc(C(C)(C)C(F)(F)F)c1 [Alpelisib] (partner 2 µM)
Procedure, shortened: as §1

[5] = compound: CNC(=O)c1cc(Oc2ccc(NC(=O)Nc3ccc(Cl)c(C(F)(F)F)c3)cc2)ccn1 [Sorafenib] + C[C@@H](Oc1cc(-c2cnn(C3CCNCC3)c2)cnc1N)c1c(Cl)ccc(F)c1Cl [Crizotinib] (partner 1 µM)
Procedure, shortened: as §1

Cell Line | relative viability ([1]; first compound 0.08 µM) | relative viability ([1]; first compound 0.253 µM) | relative viability ([1]; first compound 2.53 µM) | relative viability ([1]; first compound 8 µM) | relative viability ([2]; first compound 0.08 µM) | relative viability ([2]; first compound 0.253 µM) | relative viability ([2]; first compound 2.53 µM) | relative viability ([2]; first compound 8 µM) | relative viability ([3]; first compound 0.08 µM) | relative viability ([3]; first compound 0.253 µM) | relative viability ([3]; first compound 2.53 µM) | relative viability ([3]; first compound 8 µM) | relative viability ([4]; first compound 0.08 µM) | relative viability ([4]; first compound 0.253 µM) | relative viability ([4]; first compound 2.53 µM) | relative viability ([4]; first compound 8 µM) | relative viability ([5]; first compound 0.08 µM) | relative viability ([5]; first compound 0.253 µM) | relative viability ([5]; first compound 2.53 µM) | relative viability ([5]; first compound 8 µM)
HCC-15 | 0.697 | 0.68 | 0.774 | 0.417 | 0.701 | 0.641 | 0.575 | 0.442 | 1.18 | 1.17 | 1.05 | 0.951 | 0.86 | 0.932 | 0.955 | 0.575 | 0.836 | 0.774 | 0.813 | 0.566
NCI-H1734 | 0.536 | 0.402 | 0.402 | 0.357 | 0.609 | 0.541 | 0.563 | 0.601 | 0.572 | 0.497 | 0.505 | – | 0.685 | 0.654 | 0.633 | 0.568 | 0.746 | 0.625 | 0.66 | 0.426
H3255 | 0.497 | 0.344 | 0.345 | 0.201 | 0.574 | 0.532 | 0.536 | 0.438 | 1.02 | 0.799 | 0.937 | 0.716 | 0.851 | 0.639 | 0.802 | 0.552 | 1.06 | 0.809 | 0.799 | 0.62
NCI-H2347 | 0.74 | 0.351 | 0.351 | 0.308 | 0.675 | 0.502 | 0.503 | 0.519 | 0.784 | 0.664 | 0.636 | 0.47 | 1.2 | 0.89 | – | 1 | 0.796 | 0.559 | 0.491 | 0.525
A-427 | 0.75 | 0.671 | – | 0.31 | 0.71 | 0.771 | 0.733 | 0.635 | 0.831 | 0.675 | 0.715 | 0.541 | 1.08 | 1.07 | 1.06 | 0.925 | 0.895 | 0.855 | 0.826 | 0.369
NCI-H1792 | 0.825 | 0.742 | 0.863 | 0.554 | 0.645 | 0.416 | 0.347 | 0.179 | 0.674 | 0.483 | 0.442 | 0.425 | 0.704 | 0.622 | 0.657 | 0.664 | 1.05 | 0.973 | 1 | 0.87
NCI-H1355 | 0.74 | 0.627 | 0.816 | 0.54 | – | 0.753 | 0.685 | 0.411 | 0.805 | 0.713 | 0.651 | 0.546 | 0.887 | 0.767 | 0.784 | 0.778 | 1.16 | 1.04 | 1.04 | 1.11
NCI-H838 | 0.285 | 0.277 | 0.318 | 0.293 | 0.776 | 0.744 | 0.735 | 0.215 | 0.971 | 0.93 | – | 0.923 | 1.08 | 1.1 | 1.15 | 0.905 | 0.931 | 0.946 | 0.991 | 0.903
NCI-H358 | 0.202 | 0.186 | 0.379 | 0.151 | 0.551 | 0.491 | 0.368 | 0.375 | 0.539 | – | 0.79 | 0.368 | 1.06 | 1.12 | 0.934 | 0.337 | 0.56 | 0.72 | 0.713 | 0.292
EPLC-272H | 0.479 | 0.341 | 0.402 | 0.254 | 1.11 | 0.838 | 1.02 | 0.283 | 0.247 | 0.176 | – | 0.209 | 0.928 | 0.986 | 1.15 | 0.898 | – | 0.819 | – | 0.855
NCI-H1975 | 0.423 | 0.305 | 0.374 | 0.314 | 0.936 | 0.779 | 0.669 | 0.353 | 0.807 | 0.633 | 0.803 | 0.809 | 0.643 | 0.789 | 0.77 | 0.323 | 0.988 | 1.03 | 0.985 | 0.466
LK-2 | 0.259 | 0.267 | 0.341 | 0.263 | 0.674 | 0.734 | 0.575 | 0.346 | 0.394 | 0.338 | 0.413 | 0.134 | 1.06 | – | 0.89 | 0.647 | 0.208 | – | 0.263 | 0.256
RERF-LC-KJ | 0.967 | 0.668 | 0.77 | 0.401 | 0.979 | 0.784 | – | 0.297 | 1.09 | 0.781 | 0.941 | 0.897 | 1.03 | 0.989 | 0.951 | 0.906 | 0.885 | 0.798 | 0.856 | 0.768
LXF-289 | 0.292 | 0.205 | 0.187 | 0.196 | 1.03 | 1.04 | 1.01 | 0.96 | 1.12 | 1.11 | 1.17 | 1.05 | 1.09 | 1.04 | 1.05 | 1.02 | 0.816 | 0.814 | 0.824 | 0.757
NCI-H2405 | 0.217 | 0.183 | 0.2 | 0.214 | 0.891 | 0.852 | 0.887 | 0.807 | 0.819 | 0.597 | 0.681 | 0.63 | 1 | 0.857 | 0.627 | 0.423 | 0.884 | 0.767 | – | 0.76
